Columns and labels:
[1] = system: human Z138 mantle cell lymphoma cell line; experiment: Antitumor activity of combined treatment, Z138 mantle cell lymphoma xenograft (Example 2); format: in vivo, SCID beige mice; details: for Tumor growth inhibition (TGI) on day 32: SCID beige mice, RO5072759 0.5 mg/kg i.p. q7d, GDC-0199 100 mg/kg p.o. daily, RG7388 100 then 80 mg/kg p.o. daily, day 32 after tumor cell inoculation; for Tumor-free animals on Day 125: number of animals out of 9-10 per group; for Median time to event (Days to reach TV of 1500 mm^3): time-to-event analysis until day 125; for Number of animals with reduced tumor growth or non-responder / Number of animals with tumor regrowth: until day 125
Experimental: Type II anti-CD20 antibody B-HH6-B-KV1 GE (=humanized B-Ly1, glycoengineered B-HH6-B-KV1, see WO 2005/044859 and WO 2007/031875) was provided as stock solution (c=9.4 mg/ml) from GlycArt, Schlieren, Switzerland, in histidine, trehalose and polysorbate 20 buffer. The antibody was diluted with PBS prior to in-vivo application. The Bcl-2 inhibitor GDC-0199 was obtained from Genentech Inc., CA, USA. MDM2(4) antagonist RG7388 (RO5503781) was provided by the Small Molecule Process Research and Development unit, Hoffmann-La Roche, Basel, Switzerland.
The human Z138 mantle cell lymphoma cell line was cultured in DMEM supplemented with 10% fetal bovine serum (PAA Laboratories, Austria) and 2 mM L-glutamine at 37° C. in a water-saturated atmosphere at 5% CO2. For in-vivo xenograft experiments the cells were co-injected with Matrigel.
Female SCID beige mice, age 4-5 weeks at arrival (purchased from Charles River, Sulzfeld, Germany), were maintained in the quarantine part of the animal facility for one week and afterwards under specific-pathogen-free condition with daily cycles of 12 h light/12 h darkness according to guidelines (GV-Solas; Felasa; TierschG). The experimental study protocol was reviewed and approved by Roche and the local government (Regierung von Oberbayern; registration no. 55.2-1-54-2531.2-26-09). Diet food (KLIBA NAFAG 3807) and water (filtered) were provided ad libitum.
Animals were monitored daily for clinical symptoms and detection of adverse effects. During the experiment the body weight of animals was checked two times a week and tumor volume was measured by caliper.
Animal treatment started at the day of randomization 18 days after tumor cell inoculation. Humanized type II anti-CD20 antibody RO5072759 B-HH6-B-KV1 GE (obinutuzumab) was administered as single agent i.p. q7d once weekly (day 18, 25, 32) for 3 weeks at a dosage of 0.5 mg/kg. The bcl-2 inhibitor GDC-0199 was given p.o. once daily (from day 18 to day 36) over 19 days at a dosage of 100 mg/kg. The MDM2 antagonist RG7388 (RO5503781) was given p.o. once daily over 5 days at a dosage of 100 mg/kg (active compound) from day 18 to day 22 and was administered over 12 days at a dosage of 80 mg/kg (active compound) from day 25 to day 36. There was no treatment on day 23 and 24. In the combination groups, RO5072759 B-HH6-B-KV1 GE, MDM2(4) and GDC-0199 were administered at the same dosages and on the same days. The corresponding vehicle was administered on the same days.
To elucidate the long term effects of the various treatments a time-to-event analysis was performed until day 125 after tumor cell inoculation.

[2] = system: DOHH2 DLBCL xenografts (CD20+, p53 wt); experiment: In vivo antitumor efficacy against DOHH2 DLBCL xenografts (Example 1); details: s.c. DOHH-2 xenografts, female SCID beige mice; for TGI % (tumor growth inhibition compared to control): RG7388 30 mg/kg oral, obinutuzumab 10 mg/kg ip once weekly, GDC-0199 100 mg/kg oral, treatment days 13-29
Experimental: The in vivo antitumor efficacy of the CD20 specific antibody obinutuzumab in combination with bcl-2 inhibitor GDC-0199 and MDM2 inhibitor RG7388 was evaluated against DOHH2 DLBCL xenografts (CD20+, p53 wt). As used herein, obinutuzumab is used synonymously with RO5072759 and B-HH6-B-KV1 GE. As used herein, said bcl-2 inhibitor GDC-0199 is the following chemical compound: 4-(4-{[2-(4-chlorophenyl)-4,4-dimethylcyclohex-1-en-1-yl]methyl}piperazin-1-yl)-2-(1H-pyrrolo[2,3-b]pyridin-5-yloxy)-N-({4-[(tetrahydro-2H-pyran-4-ylmethyl)amino]-3-[(trifluoromethyl)sulfonyl]phenyl}sulfonyl)benzamide or a salt or a polymorphic form thereof. As used herein, said MDM2 inhibitor RG7388 is the following chemical compound 4-{[(2R,3S,4R,5S)-4-(4-Chloro-2-fluoro-phenyl)-3-(3-chloro-2-fluoro-phenyl)-4-cyano-5-(2,2-dimethyl-propyl)-pyrrolidine-2-carbonyl]-amino}-3-methoxy-benzoic acid or a salt or a polymorphic form thereof.
CD20 antibody obinutuzumab was provided as stock solution from Roche, Basel, Switzerland. Antibody buffer included histidine. Antibody solution was diluted appropriately in buffer from stock prior injections. MDM2(4) inhibitor was provided as SDP formulation from Roche, Basel, Switzerland and resuspended prior to use. Bcl-2 inhibitor GDC-0199 was provided by GNE, SSF, USA and formulated prior to use.
The original DOHH-2 human B cell NHL cell line (DLBCL) was established at the NCI and purchased from ATCC (Manassas, Va., USA). Expansion of tumor cells for the transplantation was done by the TAP CompacT CellBase Cell Culture Roboter according to the protocol. Tumor cell line was routinely cultured in RPMI 1640 medium, FCS 10% and L-Glutamin 2 mM at 37° C. in a water-saturated atmosphere at 5% CO2. Culture passage was performed with trypsin/EDTA 1× splitting twice/week and passage 2 used for transplantation.
Female SCID beige mice, age 6-7 weeks at arrival, maintained under specific-pathogen-free condition with daily cycles of 12 h light/12 h darkness according to committed guidelines. Experimental study protocol was reviewed and approved by local government. After arrival animals were maintained in animal facility for one week to get accustomed to new environment and for observation. Continuous health monitoring was carried out on regular basis. Diet food and autoclaved water were provided ad libitum.
Animals were controlled daily for clinical symptoms and detection of adverse effects. For monitoring throughout the experiment body weight of animals was documented.
Animal treatment started after randomisation when median tumor size was about 200 mm^3. CD20 antibody obinutuzumab was administered as single agent and in combination at 10 mg/kg ip once weekly on days 13, 21 and 27. The corresponding vehicle was administered on the same days. MDM2(4) inhibitor RG7388 oral treatment at 30 mg/kg was done as single agent and in combination on days 13-17, 20-24 and 27-29. Finally, bcl-2 inhibitor GDC-0199 was given orally at 100 mg/kg on days 13-29 as single agent and in combination.
DOHH-2 human Diffuse Large B-cell Lymphoma (DLBCL) cells (CD20+, p53 wt) were s.c. inoculated with Matrigel onto female SCID beige mice. Tumor bearing mice were randomized 13 days later to the indicated study groups and compound treatment initiated. Tumor bearing animals were treated with vehicle control, with the MDM2(4) inhibitor RO5503781 (RG7388) at 30 mg/kg, with the anti-CD20 antibody obinutuzumab at 10 mg/kg or with bcl-2 inhibitor GDC-0199 (100 mg/kg) as single agent. Furthermore one study group received the triple combination of MDM2 inhibitor RG7388, CD20 antibody obinutuzumab and bcl-2 inhibitor GDC-0199. […] A similar efficacy was noticed after treatment with the bcl-2 inhibitor GDC-0199 (60% TGI), whereas the best efficacy as single agent was achieved after treatment with the anti-CD20 antibody obinutuzumab reaching nearly tumor stasis (TGI 90%).

Row | Compound | Tumor growth inhibition (TGI) on day 32 [1] | Tumor-free animals on Day 125 [1] | Median time to event (Days to reach TV of 1500 mm^3) [1] | Number of animals with reduced tumor growth or non-responder [1] | Number of animals with tumor regrowth [1] | npTCR [2] | TGI % (tumor growth inhibition compared to control) [2]
1 | CC1(C)CCC(CN2CCN(c3ccc(C(=O)NS(=O)(=O)c4ccc(NCC5CCOCC5)c([N+](=O)[O-])c4)c(Oc4cnc5[nH]ccc5c4)c3)CC2)=C(c2ccc(Cl)cc2)C1 [GDC-0199, 4-(4-{[2-(4-chlorophenyl)-4,4-dimethylcyclohex-1-en-1-yl]methyl}piperazin-1-yl)-N-({3-nitro-4-[(tetrahydro-2H-pyran-4-ylmethyl)amino]phenyl}sulfonyl)-2-(1H-pyrrolo[2,3-b]pyridin-5-yloxy)benzamide, reference compound] | 53% | 0 | 29 days | 10 | 0 | 0.43 | 60%
2 | COc1cc(C(=O)O)ccc1NC(=O)[C@@H]1N[C@@H](CC(C)(C)C)[C@](C#N)(c2ccc(Cl)cc2F)[C@H]1c1cccc(Cl)c1F [RG7388, 4-{[(2R,3S,4R,5S)-4-(4-Chloro-2-fluoro-phenyl)-3-(3-chloro-2-fluoro-phenyl)-4-cyano-5-(2,2-dimethyl-propyl)-pyrrolidine-2-carbonyl]-amino}-3-methoxy-benzoic acid] | 67% | 0 | 30 days | 9 | 0 | 0.48 | 56%
3 | obinutuzumab: afucosylated glyco-engineered humanized B-Ly1 type II anti-CD20 IgG1 antibody, VH SEQ ID NO:7 (B-HH6), VL SEQ ID NO:20 (B-KV1) | 47% | 2 | 28 days | 8 | 0 | 0.17 | 90%

Source: patent US20160347852A1, “Combination therapy of an anti-CD20 antibody with a Bcl-2 inhibitor and a MDM2 inhibitor” (Hoffmann-La Roche Inc., priority 2015, published 2016)
